According to US20200022964A1, “COMPOSITIONS AND METHODS FOR TREATMENT OF INFLAMMATORY AUTOIMMUNE DISEASES” (New York University, priority 2018, published 2020):
pEC50: −log10 of the molar value.

What was measured:
[1] = test system: TNF-α/NF-κB signaling pathway; assay: NF-κB beta-lactamase reporter gene assay in NF-κB-bla THP-1 cell line; format: cell-based; details: THP-1 cells, drug overnight; for TNF-α-activated NF-κB reporter gene: then TNF-α 6 hours
Method: In vitro and in vivo screen of FDA-approved drug library. NF-κB-bla THP-1 cell line in which NF-κB beta-lactamase reporter gene was stably integrated, RAW 264.7 macrophages in which NF-κB luciferase reporter gene was transiently transfected, and TNF-tg:NF-κB-Luc double mutant reporter mice were employed to screen the drug library. Screening FDA approved drugs in vitro. NF-κB-bla THP-1 cell line ([…], Invitrogen) was cultured in 96-well plates and FDA approved drugs (10 μM, L1300, Selleckchem) were added and cultured overnight. Next day, […] Loading Kit with CCF2-AM ([…], Invitrogen) was used to detect the β-lactamase activity via SpectraMax i3x system (5025027A Molecular Devices) with excitation wavelength at 409 nm and emission wavelengths at 520 nm or 470 nm. This process was performed in triplicate. Subsequently, the drugs from first screening that could inhibit TNF-α induced NF-κB activity underwent further screening by NF-κB luciferase assay. After transfection with NF-κB luciferase reporter gene and Renilla plasmids for 8 hours, cells were treated with drugs (10 μM) overnight, followed by TNF-α (10 ng/ml) stimulation for 6 hours, then bioluminescence was measured by Dual-Luciferase® Reporter Assay kit (E1910, Promega). The data were analyzed by Graphpad Prism software (GraphPad Software, San Diego, Calif.).

DBA/1J mice = assay: Collagen induced arthritis model in DBA/1J mice; details: for loss of cartilage (Safranin O staining of ankle) / serum levels of IL-1β and IL-6 / arthritis clinical scores and incidence / onset of disease: prevention; for arthritis clinical scores and incidence / onset of disease: oral daily from 18 days after immunization, FFD 10 mg/kg, TFD 50 mg/kg; for disease scores: therapeutic, treatment initiated at clinical score of ˜5 points, FFD 0.4, 2, 10 mg/kg, TFD 2, 10, 50 mg/kg oral, 24 days
cPLA2 = molecular target: T1, cPLA2 (Mus musculus, UniProt P47713); assay: CETSA assay in RAW264.7 cells; format: binding; set-up: endogenous in cells; host or cells: RAW264.7; details: for pEC50: CETSA at 49° C., 0.001 μM to 100 μM, read-out: EC50 of prevention of cPLA2 denaturation (isothermal dose response)
T1 sequence (P47713 1-748): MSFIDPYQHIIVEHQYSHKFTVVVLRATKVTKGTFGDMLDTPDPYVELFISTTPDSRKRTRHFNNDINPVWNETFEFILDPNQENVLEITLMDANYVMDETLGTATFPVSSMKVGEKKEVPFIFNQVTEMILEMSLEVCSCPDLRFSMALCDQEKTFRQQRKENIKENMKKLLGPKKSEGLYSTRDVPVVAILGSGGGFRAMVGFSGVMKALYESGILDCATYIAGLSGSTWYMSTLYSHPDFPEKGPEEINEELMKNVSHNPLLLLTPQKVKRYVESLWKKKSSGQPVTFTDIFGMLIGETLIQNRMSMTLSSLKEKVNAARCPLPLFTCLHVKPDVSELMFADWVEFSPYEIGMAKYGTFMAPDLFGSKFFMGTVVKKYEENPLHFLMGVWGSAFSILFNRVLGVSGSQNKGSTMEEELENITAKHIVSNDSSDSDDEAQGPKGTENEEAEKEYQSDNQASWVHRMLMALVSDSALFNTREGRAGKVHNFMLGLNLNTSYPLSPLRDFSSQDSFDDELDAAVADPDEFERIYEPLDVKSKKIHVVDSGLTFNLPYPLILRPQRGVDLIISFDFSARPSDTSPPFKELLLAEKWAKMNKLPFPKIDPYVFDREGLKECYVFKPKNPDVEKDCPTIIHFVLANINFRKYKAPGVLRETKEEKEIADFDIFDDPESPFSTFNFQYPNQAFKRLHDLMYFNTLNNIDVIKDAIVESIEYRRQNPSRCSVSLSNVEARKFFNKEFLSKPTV
Method: CETSA assay. RAW264.7 cells were treated with FFD (10 μM)/TFD (1 μM) for 1 hour in a 37° C. incubator with 5% CO2. Cells were harvested and divided equally into different tubes, after which the cells were heated to different temperatures for 3 minutes. After lysis via 3 repeated freeze-thaw cycles, samples underwent centrifugation at 20000 g and supernatants were collected for analysis. For the isothermal dose response, a series of ten-fold change concentrations (ranged from 0.001 μM to 100 μM) of FFD/TFD were used to treat cells and no variation in temperature was introduced. The remaining steps are the same as previously reported^5.

[2] = test system: TNF-α-activated NF-κB reporter gene; assay: NF-κB luciferase reporter in control and cPLA2 knockout Raw264.7 cells; format: cell-based
Method: Screening FDA approved drugs in vitro. NF-κB-bla THP-1 cell line (K1662, Invitrogen) was cultured in 96-well plates and FDA approved drugs (10 μM, L1300, Selleckchem) were added and cultured overnight. Next day, cells were incubated with TNF-α (10 ng/ml, PHC3015, Invitrogen) for 6 hours and LiveBLAzer™ FRET-B/G Loading Kit with CCF2-AM (K1095, Invitrogen) was used to detect the β-lactamase activity via SpectraMax i3x system (5025027A Molecular Devices) with excitation wavelength at 409 nm and emission wavelengths at 520 nm or 470 nm. This process was performed in triplicate. Subsequently, the drugs from first screening that could inhibit TNF-α induced NF-κB activity underwent further screening by NF-κB luciferase assay. After transfection with NF-κB luciferase reporter gene and Renilla plasmids for 8 hours, cells were treated with drugs (10 μM) overnight, followed by TNF-α (10 ng/ml) stimulation for 6 hours, then bioluminescence was measured by Dual-Luciferase® Reporter Assay kit (E1910, Promega). The data were analyzed by Graphpad Prism software (GraphPad Software, San Diego, Calif.).
Knock out of cPAL2 by CRISPR-Cas9. Knockout cells were generated in accordance with a previously published protocol. gRNA was inserted into the lentiCRISPR v2 vector. Packaging the inserted vector into lentivirus was completed by co-transfecting the lentiCRISPR v2, VSVG and ΔR6.7 in 293T cells. After packaging, we transfected the virus into RAW264.7 cells over 8 hours. Puromycin (2 μg/ml) was used to select the stably transfected RAW264.7 cells

Row | SMILES | AA activation of the NF-κB reporter gene ([1]; then AA 6 hours) | TNF-α-activated NF-κB reporter gene [1] | TNF-α-activated NF-κB reporter gene ([1]; listed as FFD) | loss of cartilage (Safranin O staining of ankle) (DBA/1J mice) | serum levels of IL-1β and IL-6 (DBA/1J mice) | arthritis clinical scores and incidence (DBA/1J mice) | onset of disease (DBA/1J mice) | disease scores (DBA/1J mice) | pEC50 (cPLA2) | inhibition of TNF-α-activated NF-κB reporter gene in cPLA2 knockout cells ([2]; cPLA2 knockout cells) | anti-TNF/NF-κB activity in cPLA2 knockout cells transfected with cPLA2 S505A ([2]; point mutant Ser-505-Ala) | anti-TNF/NF-κB activity in cPLA2 knockout cells transfected with a cPLA2 expression plasmid ([2]; re-established expression of cPLA2) | Tm of cPLA2 (CETSA melt curve) (cPLA2; RAW264.7 cells, FFD 10 μM, TFD 1 μM, 1 hour, control DMSO 46.09) [°C]
1 | CC(C)(C(=O)O)c1ccc(C(O)CCCN2CCC(C(O)(c3ccccc3)c3ccccc3)CC2)cc1 (centres unmarked) [fexofenadine] | did not constrain | inhibited | inhibit | prevented the loss of cartilage | significantly reduced | significantly decrease | delay the onset | dose-dependently ameliorated | 6.99 | lost its inhibition | could not rescue | reinstated | –
2 | CC(C)(C)c1ccc(C(O)CCCN2CCC(C(O)(c3ccccc3)c3ccccc3)CC2)cc1 (centres unmarked) [terfenadine] | – | inhibit | – | prevented the loss of cartilage | significantly reduced | significantly decrease | delay the onset | dose-dependently ameliorated | 8.84 | – | – | – | 49.08
